This is an account of results in US7312358B2, “Pharmaceutically active sulfanilide derivatives” (Laboratoires Serono SA, priority 2000, dated 2007).

What is called Ki is a dissociation constant, usually derived from enzyme kinetics or from competition with a known ligand. By melting point is commonly meant the temperature of the solid-liquid transition.

The target of one data set is T1, hOT receptor (Homo sapiens, UniProt P30559).
T1 construct: expressed in transfected cells; host or cells: HEK293EBNA cells (membranes)
T1 sequence (P30559 1-389): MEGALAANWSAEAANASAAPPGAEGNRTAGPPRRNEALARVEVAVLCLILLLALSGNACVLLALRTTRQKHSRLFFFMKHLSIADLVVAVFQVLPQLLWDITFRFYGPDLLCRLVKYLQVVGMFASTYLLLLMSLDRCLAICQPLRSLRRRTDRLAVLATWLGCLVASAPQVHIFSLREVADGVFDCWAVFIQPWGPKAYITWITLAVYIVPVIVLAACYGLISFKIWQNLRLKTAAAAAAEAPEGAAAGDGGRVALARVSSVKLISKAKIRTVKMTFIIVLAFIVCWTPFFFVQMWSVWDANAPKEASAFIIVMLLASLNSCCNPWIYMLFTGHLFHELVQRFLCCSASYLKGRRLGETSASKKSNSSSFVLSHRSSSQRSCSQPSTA
Put plainly: In vitro competition binding assay on hOT receptor with scintillating proximity assay. Conditions: membranes from HEK293EBNA cells expressing hOT receptor; radiolabel [125I]-OVTA; SPA; read-out: Binding Affinity Human OT-R Ki. As for the experimental part: a) In Vitro Competition Binding Assay on hOT Receptor with Scintillating Proximity Assay (Pharmaceutical Manufacturing International, 1992, p. 49-53 by Cook, N. D. et al)
This assays allows to determine the affinity of the test compounds for the OT receptor. Membranes from HEK293EBNA cells expressing the hOT receptor were resuspended in buffer containing 50 mM Tris-HCl, pH 7.4, 5 mM MgCl2 and 0.1% BSA (w/v). The membranes (2-4 μg) were mixed with 0.1 mg wheat-germ aglutinin (WGA) SPA bead (type A) and 0.2 nM of the radiolabel [^125I]-OVTA (OVTA being […] and is an analogue of OT for competition binding experiments). Non-specific binding was determined in the presence of 1 μM Oxytocin. The total assay volume was 100 μl. The plates (Corning (D NBS plate) were incubated at room temperature for 30 min and counted on a Mibrobeta plate counter. The tests compounds were used in concentrations of 30 μM, 10 μM, 1 μM, 300 nM, 100 nM, 10 nM, 1 nM, 100 pM, 10 pM. The competition binding data were analysed using the iterative, nonlinear, curve-fitting program, “Prism”.
The binding affinities to the oxytocin receptor of the sulfanilide derivatives claimed in the formula I were assessed using the above described in vitro biological assay. The values refer to the binding affinity (IC50; μM) of the example compounds according to formula I to the Oxytocin receptor. From the values shown in Table 1 it can be derived that said test compounds according to formula I do show a significant binding to the oxytocin receptor.
In the case of `O=C(CN(c1ccc(Br)cc1)S(=O)(=O)c1ccccc1)Nc1cccc2cccnc12` [2-[Benzenesulfonyl-(4-bromo-phenyl)-amino]-N-quinolin-8-yl-acetamide], the Ki worked out at 192 nM.
`CCOc1ccc(S(=O)(=O)N(CC(=O)N/N=C\c2ccccc2O)c2ccc(C)cc2)cc1` [Example 15, 4-ethoxy-N-{2-[2-(2-hydroxybenzylidene)hydrazino]-2-oxoethyl}-N-(4-methylphenyl)benzenesulfonamide]: the Ki came out at 1.2 nM.
The same measure, in the same setting: under `O=C(CN(c1ccc(Cl)cc1)S(=O)(=O)c1cccs1)N/N=C1\C(=O)Nc2ccccc21` [Example 36, N-(4-chlorophenyl)-N-{2-oxo-2-[(2Z)-2-(2-oxo-1,2-dihydro-3H-indol-3-ylidene)hydrazino]ethyl}-2-thiophenesulfonamide] stands 29.3 nM; under `CCOc1ccc(S(=O)(=O)N(CC(=O)N/N=C2\C(=O)Nc3ccncc32)c2ccc(Cl)cc2)cc1` [Example 50, N-(4-chlorophenyl)-4-ethoxy-N-{2-oxo-2-[(2Z)-2-(2-oxo-1,2-dihydro-3H-pyrrolo[3,2-c]pyridin-3-ylidene)hydrazino]ethyl}benzenesulfonamide], 57.1 nM.
Regarding `CN(C)CCOc1ccc(S(=O)(=O)N(CC(=O)N/N=C2\C(=O)Nc3ccccc32)c2ccc(Cl)cc2)cc1` [Example 57, N-(4-chlorophenyl)-4-[2-(dimethylamino)ethoxy]-N-{2-oxo-2-[(2Z)-2-(2-oxo-1.2-dihydro-3H-indol-3-ylidene)hydrazino]ethyl}benzenesulfonamide], the Ki worked out at 1.8 nM.
Consider `Cc1ccc(N(CC(=O)N/N=C2\C(=O)Nc3ccccc32)S(=O)(=O)c2ccc(OCCCN(C)C)cc2)cc1` [Example 59, 4-[3-(Dimethylamino)propoxy]-N-(4-methylphenyl)-N-{2-oxo-2-[(2Z)-2-(2-oxo-1,2-dihydro-3H-indol-3-ylidene)hydrazino]ethyl}benzenesulfonamide], for which the Ki is 0.3 nM.
Take `O=C(CN(c1ccc(Cl)cc1)S(=O)(=O)c1ccc(OCc2cccs2)cc1)N/N=C1\C(=O)Nc2ccccc21` [Example 60, N-(4-chlorophenyl)-N-{2-oxo-2-[(2Z)-2-(2-oxo-1,2-dihydro-3H-indol-3-ylidene)hydrazino]ethyl}-4-(2-thienylmethoxy)benzenesulfonamide]: the Ki was found to be 53.3 nM.
Regarding `CN(C)CCCOc1ccc(S(=O)(=O)N(CC(=O)N/N=C2\C(=O)Nc3ccncc32)c2ccc(Cl)cc2)cc1` [Example 68, N-(4-chlorophenyl)-4-[3-(dimethylamino)propoxy]-N-{2-oxo-2-[(2Z)-2-(2-oxo-1,2-dihydro-3H-pyrrolo[3,2-c]pyridin-3-ylidene)hydrazino]ethyl}benzenesulfonamide], the Ki turned out to be 78.1 nM.
Take `COc1ccc(N(CC(=O)N2Cc3ccccc3CC2CC(N)=O)S(=O)(=O)c2ccc(OC)c(OC)c2)cc1` (stereo not shown) [Example 82, 2-[2-({[(3,4-Dimethoxyphenyl)sulfonyl]-4-methoxyanilino}acetyl)-1,2,3,4-tetrahydro-3-isoquinolinyl]acetamide]: the Ki is 465 nM.
In the case of `CCOc1ccc(S(=O)(=O)N(CC(=O)N2Cc3ccccc3CC2CC(N)=O)c2ccc(C)cc2)cc1` (stereo not shown) [Example 89, 2-[2-({[(4-Ethoxyphenyl)sulfonyl]-4-methylanilino}acetyl)-1,2,3,4-tetrahydro-3-isoguinolinyl]acetamide], the Ki amounted to 498 nM.
Still for that read-out and setting: under `CCOc1ccc(S(=O)(=O)N(CC(=O)N2Cc3ccccc3CC2C(N)=O)c2ccc(OC)cc2)cc1` (stereo not shown) [Example 91, 2-({[(4-Ethoxyphenyl)sulfonyl]-4-methoxyanilino}acetyl)-1.2,3,4-tetrahydro-3-isoquinolinecarboxamide] stands 316 nM.
The same measure, in the same setting: under `Cc1ccc(N(CC(=O)N2CCc3ccccc3C2)S(=O)(=O)c2ccccc2)cc1` [N-[2-(3,4-Dihydro-1H-isoquinolin-2-yl)-2-oxo-ethyl]-N-p-tolyl-benzenesulfonamide] stands 472 nM; under “N-(4-chlorophenyl)-4-ethoxy-N-{2-[(2E)-2-(2-hydroxybenzylidene)hydrazino]-2-oxoethyl}benzenesulfonamide [Example 38]”, 14.8 nM.

Test system in another data set: not given
Experiment: not given
Conditions: not given
Turning to `CCOc1ccc(S(=O)(=O)N(CC(=O)N/N=C2/C(=O)Nc3ccc(S(=O)(=O)O)cc32)c2ccc(C)cc2)cc1` [Example 1, 3-[({[(4-ethoxyphenyl)sulfonyl]-4-methylanilino}acetyl)hydrazono]-2-oxo-2,3-dihydro-H-indole-5-sulfonic Acid], the melting point is 318 to 319 °C (dec.).
Still for that read-out and setting: under `CCOc1ccc(S(=O)(=O)N(CC(=O)N/N=C2/C(=O)Nc3ccccc32)c2ccccc2)cc1` [Example 2, 4-ethoxy-N-{2-oxo-2-[2-(2-oxo-1,2-dihydro-3H-indol-3-ylidene)hydrazino]-ethyl}-N-phenylbenzenesulfonamide] stands 135.5 to 136.5 °C; under `CCOc1ccc(S(=O)(=O)N(CC(=O)N/N=C2/C(=O)Nc3ccc([N+](=O)[O-])cc32)c2ccccc2)cc1` [Example 3, 4-ethoxy-N-{2-[2-(5-nitro-2-oxo-1,2-dihydro-3H-indol-3-ylidene)hydrazino]-2-oxoethyl}-N-phenylbenzenesulfonamide], 252 to 253 °C.
Still for that read-out and setting: under `CCOc1ccc(S(=O)(=O)N(CC(=O)N/N=C2/C(=O)Nc3ccc(I)cc32)c2ccccc2)cc1` [Example 4, 4-ethoxy-N-{2-[2-(5-iodo-2-oxo-1,2-dihydro-3H-indol-3-ylidene)hydrazino]-2-oxoethyl}-N-phenylbenzenesulfonamide] stands 233 to 234 °C.
Still for that read-out and setting: under `Cc1ccc(N(CC(=O)N/N=C2/C(=O)Nc3ccccc32)S(=O)(=O)c2cccc3ccccc23)cc1` [Example 6, N-(4-methylphenyl)-N-{2-oxo-2-[2-(2-oxo-1,2-dihydro-3H-indol-3-ylidene)hydrazino]ethyl}-1-naphthalenesulfonamide] stands 138 to 139 °C; under `Cc1ccc(N(CC(=O)N/N=C2/C(=O)Nc3ccccc32)S(=O)(=O)c2ccc(Cl)cc2)cc1` [Example 8, 4-chloro-N-(4-methylphenyl)-N-{2-oxo-2-[2-(2-oxo-1,2-dihydro-3H-indol-3-ylidene)hydrazino]ethyl}benzenesulfonamide], 234 to 235 °C; under `COc1ccc(S(=O)(=O)N(CC(=O)N/N=C2/C(=O)Nc3ccccc32)c2ccc(C)cc2)cc1` [Example 9, 4-methoxy-N-(4-methylphenyl)-N-{2-oxo-2-[2-(2-oxo-1,2-dihydro-3H-indol-3-ylidene)hydrazino]ethyl}benzenesulfonamide], 134 to 135 °C.
For the compound `Cc1ccc(N(CC(=O)N/N=C2/C(=O)Nc3ccccc32)S(=O)(=O)c2ccc(C)cc2)cc1` [Example 10, 4-methyl-N-(4-methylphenyl)-N-{2-oxo-2-[2-(2-oxo-1,2-dihydro-3H-indol-3-ylidene)hydrazino]ethyl}benzenesulfonamide], the melting point lay in the range of 243 to 244 °C.
In turn, `CCOc1ccc(S(=O)(=O)N(CC(=O)N/N=C\c2ccccc2F)c2ccc(C)cc2)cc1` [Example 12, 4-ethoxy-N-{2-[2-(2-fluorobenzylidene)hydrazino]-2-oxoethyl}-N-(4-methylphenyl)benzenesulfonamide] yielded a melting point of 183 to 184 °C.
For `Cc1ccc(N(CC(=O)N/N=C2/C(=O)Nc3ccccc32)S(=O)(=O)c2ccc(-c3ccccc3)cc2)cc1` [Example 13, N-(4-methylphenyl)-N-{2-oxo-2-[2-(2-oxo-1.2-dihydro-3H-indol-3-ylidene)hydrazino]ethyl}[1,1′-biphenyl]-4-sulfonamide], the melting point lay in the range of 246 to 247 °C.
Still for that read-out and setting: under `Cc1ccc(N(CC(=O)N/N=C2/C(=O)Nc3ccccc32)S(=O)(=O)c2ccc(Oc3ccccc3)cc2)cc1` [Example 14, N-(4-methylphenyl)-N-{2-oxo-2-[2-(2-oxo-1,2-dihydro-3H-indol-3-ylidene)hydrazino]ethyl}-4-phenoxybenzenesulfonamide] stands 245 to 246 °C; under `CCOc1ccc(S(=O)(=O)N(CC(=O)N/N=C\c2ccc(N(CC)CC)cc2O)c2ccc(C)cc2)cc1` [Example 16, N-(2-{2-[4-(diethylamino)-2-hydroxybenzylidene]hydrazino}-2-oxoethyl)-4-ethoxy-N-(4-methylphenyl)benzenesulfonamide], 227 to 228 °C.
